Test results: ChEMBL document CHEMBL3885881, “DrugMatrix”

Species on record: Rattus norvegicus
Test: DrugMatrix - Regimen: Daily Repeat
Format: toxicity, organism-based, Sprague-Dawley
Set-up: regimen Daily Repeat, gender Male, age 6-8 weeks
Settings: in vivo, po, route oral GAVAGE, […]; for URIC ACID / ALANINE AMINOTRANSFERASE / ALBUMIN / ALKALINE PHOSPHATASE / ASPARTATE AMINOTRANSFERASE / BLOOD UREA NITROGEN / CARBON DIOXIDE / CHLORIDE / CREATINE PHOSPHOKINASE / CREATININE / GLUCOSE / LACTATE DEHYDROGENASE / LIPASE / PHOSPHORUS / POTASSIUM / SODIUM / TOTAL BILIRUBIN / TOTAL PROTEIN / CHOLESTEROL: tissue Plasma; for ABSOLUTE BASOPHIL / ABSOLUTE EOSINOPHIL / ABSOLUTE LYMPHOCYTE / ABSOLUTE MONOCYTE / ABSOLUTE SEGMENTED NEUTROPHIL / BASOPHIL / EOSINOPHIL / ERYTHROCYTE COUNT / HEMATOCRIT / HEMOGLOBIN / LEUKOCYTE COUNT / LYMPHOCYTE / MEAN CORPUSCULAR HEMOGLOBIN / MEAN CORPUSCULAR HEMOGLOBIN CONCENTRATION / MONOCYTE / NEUTROPHIL / NUCLEATED RED BLOOD CELLS / PLATELET COUNT: tissue Blood
[1] = 250 mg/kg, 120 h, dose level Low, time 5 day
[2] = 2500 mg/kg, 72 h, dose level High, time 3 day
[3] = 2500 mg/kg, 120 h, dose level High, time 5 day

Cc1noc(NS(=O)(=O)c2ccc(N)cc2)c1C [SULFISOXAZOLE]
URIC ACID (250 mg/kg, 72 h, dose level Low, time 3 day): 1.8 mg/dL | ABSOLUTE BASOPHIL [1]: 0 CELLS/uL | ABSOLUTE EOSINOPHIL [1]: 0 CELLS/uL | ABSOLUTE LYMPHOCYTE [1]: 9180.67 CELLS/uL | ABSOLUTE MONOCYTE [1]: 0 CELLS/uL | ABSOLUTE SEGMENTED NEUTROPHIL [1]: 986 CELLS/uL | BASOPHIL [1]: 0% | EOSINOPHIL [1]: 0% | ERYTHROCYTE COUNT [1]: 5.62 x10E6/uL | HEMATOCRIT [1]: 34.93% | HEMOGLOBIN [1]: 13.27 G/DL | LEUKOCYTE COUNT [1]: 10.17 x10E3/uL | LYMPHOCYTE [1]: 90.67% | MEAN CORPUSCULAR HEMOGLOBIN [1]: 23.63 pg | MEAN CORPUSCULAR HEMOGLOBIN CONCENTRATION [1]: 38 G/DL | MONOCYTE [1]: 0% | NEUTROPHIL [1]: 9.33% | NUCLEATED RED BLOOD CELLS [1]: 0 /100WBC | PLATELET COUNT [1]: 1021 x10E3/uL | ALANINE AMINOTRANSFERASE [1]: 64.33 u/L | ALBUMIN [1]: 4 G/DL | ALKALINE PHOSPHATASE [1]: 394 u/L | ASPARTATE AMINOTRANSFERASE [1]: 103.67 u/L | BLOOD UREA NITROGEN [1]: 15 mg/dL | CARBON DIOXIDE [1]: 30.67 mmol/L | CHLORIDE [1]: 101.67 MEQ/L | CREATINE PHOSPHOKINASE [1]: 404 u/L | CREATININE [1]: 0.18 mg/dL | GLUCOSE [1]: 149.33 mg/dL | LACTATE DEHYDROGENASE [1]: 127.33 u/L | LIPASE [1]: 11 u/L | PHOSPHORUS [1]: 10.7 mg/dL | POTASSIUM [1]: 5.9 MEQ/L | SODIUM [1]: 143.87 MEQ/L | TOTAL BILIRUBIN [1]: 0.17 mg/dL | TOTAL PROTEIN [1]: 5.9 G/DL | URIC ACID [1]: 1 mg/dL | ABSOLUTE BASOPHIL [2]: 0 CELLS/uL | ABSOLUTE EOSINOPHIL [2]: 133 CELLS/uL | ABSOLUTE LYMPHOCYTE [2]: 8008.67 CELLS/uL | ABSOLUTE MONOCYTE [2]: 152 CELLS/uL | ABSOLUTE SEGMENTED NEUTROPHIL [2]: 3173 CELLS/uL | BASOPHIL [2]: 0% | EOSINOPHIL [2]: 1% | ERYTHROCYTE COUNT [2]: 4.62 x10E6/uL | HEMATOCRIT [2]: 28.6% | HEMOGLOBIN [2]: 11.27 G/DL | LEUKOCYTE COUNT [2]: 11.47 x10E3/uL | LYMPHOCYTE [2]: 67% | MEAN CORPUSCULAR HEMOGLOBIN [2]: 24.33 pg | MEAN CORPUSCULAR HEMOGLOBIN CONCENTRATION [2]: 39.47 G/DL | MONOCYTE [2]: 1% | NEUTROPHIL [2]: 31% | NUCLEATED RED BLOOD CELLS [2]: 0 /100WBC | PLATELET COUNT [2]: 1118.33 x10E3/uL | ALANINE AMINOTRANSFERASE [2]: 65.33 u/L | ALBUMIN [2]: 4 G/DL | ALKALINE PHOSPHATASE [2]: 312 u/L | ASPARTATE AMINOTRANSFERASE [2]: 109.67 u/L | BLOOD UREA NITROGEN [2]: 13.67 mg/dL | CARBON DIOXIDE [2]: 24.67 mmol/L | CHLORIDE [2]: 98.33 MEQ/L | CHOLESTEROL [2]: 78.33 mg/dL | CREATINE PHOSPHOKINASE [2]: 1633.33 u/L | CREATININE [2]: 0.24 mg/dL | GLUCOSE [2]: 172.33 mg/dL | LACTATE DEHYDROGENASE [2]: 198.67 u/L | LIPASE [2]: 10.67 u/L | PHOSPHORUS [2]: 11.6 mg/dL | POTASSIUM [2]: 4.69 MEQ/L | SODIUM [2]: 140.23 MEQ/L | TOTAL BILIRUBIN [2]: 0.0667 mg/dL | TOTAL PROTEIN [2]: 6.13 G/DL | URIC ACID [2]: 1.5 mg/dL | ABSOLUTE BASOPHIL [3]: 0 CELLS/uL | ABSOLUTE EOSINOPHIL [3]: 0 CELLS/uL | ABSOLUTE LYMPHOCYTE [3]: 10533.67 CELLS/uL | ABSOLUTE MONOCYTE [3]: 131 CELLS/uL | ABSOLUTE SEGMENTED NEUTROPHIL [3]: 502 CELLS/uL | BASOPHIL [3]: 0% | EOSINOPHIL [3]: 0% | ERYTHROCYTE COUNT [3]: 5.59 x10E6/uL | HEMATOCRIT [3]: 35.7% | HEMOGLOBIN [3]: 13.8 G/DL | LEUKOCYTE COUNT [3]: 11.17 x10E3/uL | LYMPHOCYTE [3]: 94.33% | MEAN CORPUSCULAR HEMOGLOBIN [3]: 24.7 pg | MEAN CORPUSCULAR HEMOGLOBIN CONCENTRATION [3]: 38.63 G/DL | MONOCYTE [3]: 1% | NEUTROPHIL [3]: 4.67% | NUCLEATED RED BLOOD CELLS [3]: 0 /100WBC | PLATELET COUNT [3]: 1151.33 x10E3/uL | ALANINE AMINOTRANSFERASE [3]: 87.67 u/L | ALBUMIN [3]: 4.17 G/DL | ALKALINE PHOSPHATASE [3]: 442.67 u/L | ASPARTATE AMINOTRANSFERASE [3]: 84.33 u/L | BLOOD UREA NITROGEN [3]: 19.33 mg/dL | CARBON DIOXIDE [3]: 31 mmol/L | CHLORIDE [3]: 101.67 MEQ/L | CHOLESTEROL [3]: 73.33 mg/dL | CREATINE PHOSPHOKINASE [3]: 296.67 u/L | CREATININE [3]: 0.23 mg/dL | GLUCOSE [3]: 139 mg/dL | LACTATE DEHYDROGENASE [3]: 98 u/L | LIPASE [3]: 11 u/L | PHOSPHORUS [3]: 9.13 mg/dL | POTASSIUM [3]: 5.93 MEQ/L | SODIUM [3]: 145.57 MEQ/L | TOTAL BILIRUBIN [3]: 0.1 mg/dL | TOTAL PROTEIN [3]: 6.3 G/DL | URIC ACID [3]: 0.97 mg/dL
